Laboratory results taken from ChEMBL document CHEMBL5620434, “Total Synthesis and Antibacterial Evaluation of Lupinifolin and Its Natural Analogues” (2024).
Values after ≈ are worked out from the molar mass of the structure shown. Active and inactive are the calls of the source. The rule behind the calls is not given here.

Assays:
Staphylococcus aureus [1] = test: Antibacterial activity against Staphylococcus aureus ATCC29213 assessed as reduction in bacterial growth incubated for 24 hrs by CLSI protocol based assay; type: functional
Staphylococcus aureus [2] = test: Antibacterial activity against methicillin-resistant Staphylococcus aureus 21-5 assessed as reduction in bacterial growth incubated for 24 hrs by CLSI protocol based assay; type: functional
Enterococcus faecalis [3] = test: Antibacterial activity against Enterococcus faecalis ATCC29212 assessed as reduction in bacterial growth incubated for 24 hrs by CLSI protocol based assay; type: functional
Enterococcus faecalis [4] = test: Antibacterial activity against vancomycin-resistant Enterococcus faecalis ATCC51299 assessed as reduction in bacterial growth incubated for 24 hrs by CLSI protocol based assay; type: functional
Escherichia coli [5] = test: Antibacterial activity against Escherichia coli ATCC 25922 assessed as reduction in bacterial growth incubated for 24 hrs by CLSI protocol based assay; type: functional
Cell membrane [6] = test: Disruption of membrane integrity in […] Enterococcus faecalis ATCC29212 assessed as appearance of wrinkled cell surface at 2.0 ug/ml incubated for 2 hrs by SEM analysis; type: cell membranes; conditions: dose 2.0 µg/ml
Cell membrane [7] = test: Disruption of membrane integrity in […] Enterococcus faecalis ATCC29212 assessed as appearance of shrunken cell surface at 2.0 ug/ml incubated for 2 hrs by SEM analysis; type: cell membranes; conditions: dose 2.0 µg/ml
Cell membrane [8] = test: Disruption of membrane integrity in […] Enterococcus faecalis ATCC29212 assessed as appearance of ruptured cell surface at 2.0 ug/ml incubated for 2 hrs by SEM analysis; type: cell membranes; conditions: dose 2.0 µg/ml
Cell membrane [9] = test: Disruption of membrane integrity in Enterococcus faecalis ATCC29212 assessed as increase in green fluorescence at 8 times MIC incubated for 2 hrs by NucGreen dye based fluorescence microscopic analysis; type: cell membranes
Cell membrane [10] = test: Disruption of membrane integrity in Enterococcus faecalis ATCC29212 assessed as increase in red fluorescence at 8 times MIC incubated for 2 hrs by EthD-III dye based fluorescence microscopic analysis
Enterococcus faecalis [11] = test: Antibacterial activity against Enterococcus faecalis assessed as decrease in bacterial growth measured after 16 to 18 hrs in presence of phosphatidylglycerol; type: functional, organism-based; conditions: time 16-18 hrs
Enterococcus faecalis [12] = test: Antibacterial activity against Enterococcus faecalis assessed as decrease in bacterial growth measured after 16 to 18 hrs in presence of cardiolipin; type: functional, organism-based; conditions: time 16-18 hrs
Enterococcus faecalis [13] = test: Antibacterial activity against Enterococcus faecalis assessed as decrease in bacterial growth measured after 16 to 18 hrs in presence of phosphatidylethanolamine; type: functional, organism-based; conditions: time 16-18 hrs
Enterococcus faecalis [14] = test: Antibacterial activity against Enterococcus faecalis assessed as decrease in bacterial growth measured after 16 to 18 hrs in presence of peptidoglycan; type: functional, organism-based; conditions: time 16-18 hrs
Escherichia coli [15] = test: Antibacterial activity against Escherichia coli ATCC 25922; type: functional
Escherichia coli [16] = test: Antibacterial activity against Escherichia coli ATCC 25922 in presence of polymyxin B nonapeptide; type: functional
Streptococcus mutans [17] = test: Antibacterial activity against Streptococcus mutans by CLSI protocol based assay; type: functional
Streptococcus mutans [18] = test: Bactericidal activity against Streptococcus mutans by CLSI protocol based assay; type: functional

Compound	MIC (Staphylococcus aureus [1]) [µg/mL]	MIC (Staphylococcus aureus [2]) [µg/mL]	MIC (Enterococcus faecalis [3]) [µg/mL]	MIC (Enterococcus faecalis [4]) [µg/mL]	MIC (Escherichia coli [5]) [µg/mL]	also measured
CC(C)=CCc1c(O)c2c(c3c1OC(C)(C)C=C3)OC(c1ccc(O)cc1O)CC2=O (stereo not drawn)	0.25 (≈ 0.592 µM)	0.25 (≈ 0.592 µM)	0.25 (≈ 0.592 µM)	0.5 (≈ 1.18 µM)	> 128	Activity (Cell membrane [6]): Active; Activity (Cell membrane [7]): Active; Activity (Cell membrane [8]): Active; Activity (Cell membrane [9]): Active; Activity (Cell membrane [10]): Active; Activity (Enterococcus faecalis [11]): Active; Activity (Enterococcus faecalis [12]): Active; Activity (Enterococcus faecalis [13]): inactive; Activity (Enterococcus faecalis [14]): inactive; MIC (Escherichia coli [15]): > 128 µg/mL; MIC (Escherichia coli [16]): 2 µg/mL
CC(C)C[C@@H]1NC(=O)[C@@H](Cc2ccccc2)NC(=O)[C@H](CCN)NC(=O)[C@@H](NC(=O)[C@H](CCN)NC(=O)[C@@H](N)[C@@H](C)O)CCNC(=O)C([C@@H](C)O)NC(=O)[C@H](CCN)NC(=O)[C@H](CCN)NC1=O (stereo partly drawn)						MIC (Escherichia coli [15]): > 128 µg/mL
COc1ccc([C@@H]2CC(=O)c3c(O)c4c(c(CC=C(C)C)c3O2)OC(C)(C)C=C4)c(O)c1 [KHONKLONGINOL H]	2 (≈ 4.58 µM)	4 (≈ 9.16 µM)	1 (≈ 2.29 µM)	4 (≈ 9.16 µM)	> 128	
CC(C)=CCc1c2c(c(O)c3c1O[C@H](c1ccccc1)CC3=O)C=CC(C)(C)O2	> 128	> 128	> 128	> 128	> 128	
CC(C)=CCc1c2c(c(O)c3c1O[C@H](c1ccc(O)cc1)CC3=O)C=CC(C)(C)O2 [LUPINIFOLIN]	2 (≈ 4.92 µM)	2 (≈ 4.92 µM)	0.5 (≈ 1.23 µM)	1 (≈ 2.46 µM)	> 128	MIC (Streptococcus mutans [17]): 0.25 µg/mL (≈ 0.615 µM); MBC (Streptococcus mutans [18]): 0.5 µg/mL (≈ 1.23 µM)
CC(C)=CCc1c2c(c(O)c3c1O[C@H](c1ccc(O)cc1O)CC3=O)C=CC(C)(C)O2 [FLEMICHIN D]	0.5 (≈ 1.18 µM)	0.5 (≈ 1.18 µM)	0.5 (≈ 1.18 µM)	0.5 (≈ 1.18 µM)	> 128	
CC1(C)S[C@@H]2[C@H](NC(=O)[C@H](N)c3ccccc3)C(=O)N2[C@H]1C(=O)O [AMPICILLIN]	0.5 (≈ 1.43 µM)	32 (≈ 91.6 µM)	0.5 (≈ 1.43 µM)		8 (≈ 22.9 µM)	
CC(C)=CCc1c2c(c(O)c3c1O[C@H](c1ccccc1O)CC3=O)C=CC(C)(C)O2 [MINIMIFLORIN]	2 (≈ 4.92 µM)	2 (≈ 4.92 µM)	0.5 (≈ 1.23 µM)	1 (≈ 2.46 µM)	> 128	
